Laboratory results: patent publication US20180228743A1, “COMPOUNDS AND METHODS OF PROMOTING MYELINATION” (Case Western Reserve University, priority 2016, published 2018)
Where a name gives a salt, the structure may show the parent alone. Read-outs that look alike come from different tables or passages of the source.

Legend:
[1] = system: EpiSC-derived OPCs; assay: High-throughput screening of 3,000 bioactive small molecules for MBP+ oligodendrocyte formation from OPCs; format: cell-based, mouse; details: 72 h; for % 0ligos: MBP+ oligodendrocytes; for fold induction at 2 µM: Mus musculus, read-out: fold-change in % MBP + oligodendrocytes
Description: Plates were imaged on the Operetta High Content Imaging and Analysis system (PerkinElmer) and a set of 6 fields captured from each well resulting in an average of 1200 cells being scored per well. Analysis (PerkinElmer Harmony and Columbus software) began by identifying intact nuclei stained by DAPI; that is, those traced nuclei that were larger than 300 μm^2 in surface area. Each traced nucleus region was then expanded by 50% and cross-referenced with the […] (MBP) stain to identify oligodendrocyte nuclei, and from this the percentage of oligodendrocytes was calculated. In some experiments, the total process length of MBP+ oligodendrocytes was calculated as previously described.
EpiSC-derived OPCs were grown and expanded in poly-ornithine and laminin-coated flasks before harvesting for plating. Cells were dispensed in differentiation media supplemented with Noggin (R&D Systems; 100 ng/ml), Neurotrophin 3 (R&D Systems; 10 ng/ml), cAMP (Sigma; 50 μM), and IGF-1 (R&D Systems; 100 ng/ml)) using a Biotek EL406 Microplate Washer Dispenser (Biotek) equipped with 5 μL dispense cassette (Biotek), into poly-D-lysine/laminin (Sigma, L2020; 4 μg/ml)-coated sterile, 384-well, CellCarrier ultra plates (PerkinElmer), to a final density of 12,500 cells per well and allowed to attach for 45 min before addition of drug. A 3 mM stock of bioactive compound library in dimethylsulphoxide (DMSO) were prepared in an Abgene storage 384-well plate (ThermoFisher Scientific; AB1055). These were added to assay plates using a 50 nL solid pin tool attached to Janus automated workstation (Perkin Elmer), resulting in a final screening concentration of 2 μM. Cells were incubated at 37° C. for 1 hour and then T3 (Sigma; 40 ng/ml) was added to all wells except negative controls, to which FGF (20 ng/ml) was added instead. Negative controls and T3-alone were included in each assay plate. After incubation at 37° C. for 72 h, cells were fixed, washed and stained similar to 96-well OPC assay protocol, although all the washing steps were performed using a Biotek EL406 Microplate Washer Dispenser (Biotek) equipped with a 96-well aspiration manifold. Cells were stained with DAPI (Sigma; 1 μg/ml) and MBP antibody (Abcam, ab7349; 1:100). Plates were imaged on the Operetta High Content Imaging and Analysis system (PerkinElmer) and a set of 4 fields captured from each well resulting in an average of 700 cells being scored per well. Analysis was performed as in High-Content Imaging and Analysis, above. All plates for the primary screen were processed and analyzed simultaneously to minimize variability. Molecules causing more than 20% reduction in nuclear count relative to DMSO control wells were removed from consideration, and hits were called on the basis of largest fold-increase in percentage of MBP+ oligodendrocytes relative to DMSO controls within the same plate.

[2] = system: EpiSC-derived OPCs; assay: In vitro phenotypic screening of OPCs (MBP+ oligodendrocytes at 72 h); format: cell-based, mouse; details: 72 h
[3] = system: OPCs; assay: GC/MS-based sterol profiling in OPCs; format: cell-based, mouse; details: for sterol levels / sterol intermediate accumulation in OPCs: 24 h treatment (siRNA 96 h)
[4] = biological target: T1, rat CYP51 (Rattus norvegicus, UniProt Q64654); assay: CYP51 enzymatic assay (LC/MS quantitation of FF-MAS); format: biochemical
T1 construct: purchased Cypex, Inc
T1 sequence (Q64654 1-503): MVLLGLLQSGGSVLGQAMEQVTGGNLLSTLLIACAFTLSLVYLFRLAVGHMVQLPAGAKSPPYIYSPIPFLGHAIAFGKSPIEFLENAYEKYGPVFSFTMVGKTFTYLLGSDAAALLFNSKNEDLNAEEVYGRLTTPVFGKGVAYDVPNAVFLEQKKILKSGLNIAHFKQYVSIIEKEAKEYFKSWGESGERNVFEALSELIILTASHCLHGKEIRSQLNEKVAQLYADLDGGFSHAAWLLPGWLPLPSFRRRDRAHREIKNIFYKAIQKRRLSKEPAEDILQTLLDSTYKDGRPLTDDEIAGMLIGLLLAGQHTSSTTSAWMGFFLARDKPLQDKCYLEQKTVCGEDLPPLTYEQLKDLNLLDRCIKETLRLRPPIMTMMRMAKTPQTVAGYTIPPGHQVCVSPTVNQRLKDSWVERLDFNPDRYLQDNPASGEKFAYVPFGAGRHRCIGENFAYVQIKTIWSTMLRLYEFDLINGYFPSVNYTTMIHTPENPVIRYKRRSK
Description: Finally, 15 μl of each reaction/isopropanol mixture was injected onto a SCIEX Triple Quad 6500 LC-MS/MS system using an APCI ion source in positive ion mode with a Shimadzu UFLC-20AD HPLC and a Phenomenex

[5] = 2 μM, relative to DMSO controls of the same plate
[6] = 2 μM, hydrochloride monohydrate

Molecule | cell viability (% relative to DMS0) ([1]; 2 μM) | % 0ligos ([1]; 2 μM) | fold induction at 2 µM [1, 5] | further results
Cc1nnc(C(=O)NC(C)(C)c2nc(C(=O)NCc3ccc(F)cc3)c(O)c(=O)n2C)o1 [Raltegravir (MK-0518), Raltegravir] | 115.85% | 38.02% | – | fold induction at 2 µM [1]: 4.26
Cc1cc(NC(=O)Nc2ccc(N(C)C)cc2)c2cc(F)cc(F)c2n1 [SB408124] | 106.19% | 39.63% | – | fold-change in % MBP + oligodendrocytes [1, 5]: 4.44
FC(F)(F)c1ccc(/C=C/c2nc(COc3ccc(CCCCn4ccnn4)cc3)co2)cc1 [Mubritinib (TAK 165), Mubritinib] | 142.71% | 31.45% | 3.95 | –
lsoconazole nitrate | – | 53.25% | – | fold-change in % MBP + oligodendrocytes [1, 5]: 6.70
Clc1ccc(C(Cn2ccnc2)OCc2ccc(Sc3ccccc3)cc2)c(Cl)c1 (stereo not drawn) [Fenticonazole Nitrate] | 103.63% | 35.66% | 4 | –
(±)-Vesamicol | 112.02% | 34.23% | – | fold-change in % MBP + oligodendrocytes [1, 5]: 3.87
CC(C)CCC[C@@H](C)[C@H]1CC[C@H]2[C@@H]3CC=C4C[C@@H](O)CC[C@]4(C)[C@H]3CC[C@]12C [cholesterol, Cholesterol] | – | – | – | formation of MBP+ oligodendrocytes from OPCs [2]: ineffective
Cl.O[Si](CCCN1CCCCC1)(c1ccc(F)cc1)C1CCCCC1 (stereo not drawn) [Hexahydro-sila-difenidol hydrochloride, p-fluoro analog] | – | 26.76% | – | fold-change in % MBP + oligodendrocytes [1, 5]: 3.49
O=C(c1ccc(OCCN2CCCCC2)cc1)c1c(-c2ccc(O)cc2)sc2cc(O)ccc12 [Raloxifene HCl] | – | – | 4.8 | cell viability (% relative to DMS0) ([1]; 2 μM, HCl): 114.37%; cell viability (% relative to DMS0) ([1]; 2 μM, listed as Raloxifene hydrochloride, HCl): 126.07%
CC(C)CCC[C@@H](C)[C@H]1CC=C2C3=C(CC[C@@]21C)[C@@]1(C)CCC(O)CC1CC3 (stereo partly drawn) [14-dehydrozymostenol, cholesta-8,14-dien-3-ol] | – | – | – | formation of MBP+ oligodendrocytes from OPCs [2]: enhanced the formation of MBP+ oligodendrocytes
CC(C)CCC[C@@H](C)[C@H]1CC[C@H]2C3=C(CC[C@]12C)[C@@]1(C)CC[C@H](O)C[C@@H]1CC3 [zymostenol, Zymostenol] | – | – | – | formation of MBP+ oligodendrocytes from OPCs [2]: enhanced the formation of MBP+ oligodendrocytes
c1ccc(-c2ccc(C(c3ccccc3)n3ccnc3)cc2)cc1 (stereo not drawn) [Bifonazole] | 123.69% | 40.98% | 4.59 | –
Clc1ccc(C(Cn2ccnc2)OCc2csc3c(Cl)cccc23)c(Cl)c1 (stereo not drawn) [Sertaconazole nitrate] | 134.49% | 39.38% | 5.23 | –
CCN(CC)CCCCCCCCOC(=O)c1cc(OC)c(OC)c(OC)c1.Cl [TMB-8 hydrochloride] | 139.42% | 18.47% | – | fold-change in % MBP + oligodendrocytes [1, 5]: 3.89
N[C@@H](Cc1cc(I)c(Oc2ccc(O)c(I)c2)c(I)c1)C(=O)O [liothyronine, Liothyronine] | – | – | – | sterol levels / sterol intermediate accumulation in OPCs [3]: minimal effects on sterol levels
Clc1ccc(CSC(Cn2ccnc2)c2ccc(Cl)cc2Cl)cc1 (stereo not drawn) [Sulconazole Nitrate] | 104.84% | 37.57% | 4.44 | –
C[C@]12CC[C@@H]3c4ccc(O)cc4C[C@@H](CCCCCCCCC[S+]([O-])CCCC(F)(F)C(F)(F)F)[C@H]3[C@@H]1CC[C@@H]2O (stereo partly drawn) [Fulvestrant] | 139.42% | 18.21% | 3.83 | enzyme inhibited in OPCs as indicated by sterol profile ([3]; 24 h): targeted CYP51

Molecule | cell viability (% relative to DMS0) ([1]; 2 μM) | % 0ligos ([1]; 2 μM) | fold induction at 2 µM [1, 5] | further results
Clc1ccc(CCC(Cn2ccnc2)Sc2c(Cl)cccc2Cl)cc1 (stereo not drawn) [Butoconazole nitrate] | 122.03% | 46.85% | 5.25 | –
Cc1cc(Nc2cc(CN3CCOCC3)c3nc(C)c(Cc4ccc(Cl)cc4F)n3n2)n[nH]1 [LY2784544] | 87.93% | 28.75% | 3.62 | –
C=C(c1ccc(C(=O)O)cc1)c1cc2c(cc1C)C(C)(C)CCC2(C)C [bexarotene, Bexarotene] | – | – | – | sterol levels / sterol intermediate accumulation in OPCs [3]: minimal effects on sterol levels
CC(=O)N1CCN(c2ccc(OC[C@H]3CO[C@@](Cn4ccnc4)(c4ccc(Cl)cc4Cl)O3)cc2)CC1 (stereo in doubt) [S-trans-Ketoconazole] | – | – | – | inhibition of mammalian CYP51 in vitro [4]: strikingly less effective at inhibiting mammalian CYP51
Varenicline tartrate | 144.02% | 22.86% | – | fold-change in % MBP + oligodendrocytes [1, 5]: 4.81
O=C1Cc2cc(CCN3CCN(c4nsc5ccccc45)CC3)c(Cl)cc2N1 [Ziprasidone HCl] | – | – | 4.68 | % 0ligos ([1]; 2 μM, HCl): 34.10%; cell viability (% relative to DMS0) ([1]; 2 μM, HCl): 147.64%
Cl.Clc1ccc(N2CCN(Cc3c[nH]c4ncccc34)CC2)cc1 [L-745,870 hydrochloride] | – | 32.61% | – | –
CCc1nc(N)nc(N)c1-c1ccc(Cl)cc1 [Pyrimethamine] | 91.11% | 43.87% | 4.92 | –
N=C(N)c1ccc(OCCCCCOc2ccc(C(=N)N)cc2)cc1 [Pentamidine isethionate] | 108.75% | 41.29% | 4.42 | –
CCCCOc1ccc(OCCCN2CCOCC2)cc1 [Pramoxine HCl] | 113.08% | 32.98% | 3.89 | –
OC(Cn1cncn1)(Cn1cncn1)c1ccc(F)cc1F [fluconazole, Fluconazole] | – | – | – | inhibition of mammalian CYP51 in vitro [4]: did not inhibit mammalian CYP51 in vitro
O=C(C1CCCCC1)N1CC(=O)N2CCc3ccccc3C2C1 (stereo not drawn) [Praziquantel] | 109.81% | 33.24% | 3.72 | –
CC(=O)N1CCN(c2ccc(OC[C@@H]3CO[C@](Cn4ccnc4)(c4ccc(Cl)cc4Cl)O3)cc2)CC1 (stereo in doubt) [R-trans-Ketoconazole] | – | – | – | inhibition of mammalian CYP51 in vitro [4]: strikingly less effective at inhibiting mammalian CYP51
CN1CCC[C@@H]1CCO[C@](C)(c1ccccc1)c1ccc(Cl)cc1 [Clemastine fumarate] | – | 20.49% | – | oligodendrocyte formation in combination with ketoconazole ([2]; ketoconazole 2.5 μM (maximally effective dose)): did not enhance differentiation above levels seen for ketoconazole alone; sterol levels / sterol intermediate accumulation in OPCs [3]: induced accumulation of zymostenol and zymosterol and decreased basal sterol levels
CC(C)=CCC[C@@H](C)[C@H]1CC[C@@]2(C)C3=C(CC[C@]12C)[C@@]1(C)CC[C@H](O)C(C)(C)[C@@H]1CC3 [lanosterol, Lanosterol] | – | – | – | formation of MBP+ oligodendrocytes from OPCs [2]: enhanced formation of MBP+ oligodendrocytes in a dose-responsive fashion
O=C1Cc2cc(CCN3CCN(c4nsc5ccccc45)CC3)c(Cl)cc2N1 [Ziprasidone hydrochloride monohydrate] | – | – | – | % 0ligos [1, 6]: 32.78%; fold-change in % MBP + oligodendrocytes ([1]; 2 μM, relative to DMSO controls of the same plate, hydrochloride monohydrate): 3.71; cell viability (% relative to DMS0) [1, 6]: 116.11%
